4 molecules from ChEMBL document CHEMBL1208792, “A novel series of [3.2.1] azabicyclic biaryl ethers as alpha3beta4 and alpha6/4beta4 nicotinic receptor agonists” (Bioorg Med Chem Lett, 2010) can be followed below.

Series [1] is described as follows: Agonist activity at human alpha6/4beta4 nicotinic receptor expressed in human HEK cells assessed as intracellular calcium […] by FLIPR relative to control. In kind it is functional, HEK293.
Series [2] has as its target T1, Neuronal acetylcholine receptor; alpha3/beta4 (Homo sapiens, UniProt P30926+P32297). The series can be described thus: Agonist activity at alpha3beta4 nicotinic receptor expressed in human HEK cells assessed as intracellular calcium efflux by FLIPR.
Series [3] addresses Acetylcholine receptor; alpha1/beta1/delta/gamma (Homo sapiens, UniProt P02708+P07510+P11230+Q07001). Description: Binding affinity to alpha-1-beta-gamma-delta nicotinic receptor. In kind it is protein-complex assay.
Series [4] addresses Neuronal acetylcholine receptor subunit alpha-7 (Homo sapiens, UniProt P36544). Description: Displacement of [3H]epibatidine from alpha7 nicotinic receptor expressed in human HEK293 cells. In kind it is cell-based.
In series [5] the target is Voltage-gated inwardly rectifying potassium channel KCNH2 (Homo sapiens, UniProt Q12809). Description: Displacement of [3H]dofetilide from human ERG expressed in HEK293 cells. Particulars: hek293; call rule not given here. In kind it is cell-based.
Sequence of Voltage-gated inwardly rectifying potassium channel KCNH2 (Q12809 whole entry): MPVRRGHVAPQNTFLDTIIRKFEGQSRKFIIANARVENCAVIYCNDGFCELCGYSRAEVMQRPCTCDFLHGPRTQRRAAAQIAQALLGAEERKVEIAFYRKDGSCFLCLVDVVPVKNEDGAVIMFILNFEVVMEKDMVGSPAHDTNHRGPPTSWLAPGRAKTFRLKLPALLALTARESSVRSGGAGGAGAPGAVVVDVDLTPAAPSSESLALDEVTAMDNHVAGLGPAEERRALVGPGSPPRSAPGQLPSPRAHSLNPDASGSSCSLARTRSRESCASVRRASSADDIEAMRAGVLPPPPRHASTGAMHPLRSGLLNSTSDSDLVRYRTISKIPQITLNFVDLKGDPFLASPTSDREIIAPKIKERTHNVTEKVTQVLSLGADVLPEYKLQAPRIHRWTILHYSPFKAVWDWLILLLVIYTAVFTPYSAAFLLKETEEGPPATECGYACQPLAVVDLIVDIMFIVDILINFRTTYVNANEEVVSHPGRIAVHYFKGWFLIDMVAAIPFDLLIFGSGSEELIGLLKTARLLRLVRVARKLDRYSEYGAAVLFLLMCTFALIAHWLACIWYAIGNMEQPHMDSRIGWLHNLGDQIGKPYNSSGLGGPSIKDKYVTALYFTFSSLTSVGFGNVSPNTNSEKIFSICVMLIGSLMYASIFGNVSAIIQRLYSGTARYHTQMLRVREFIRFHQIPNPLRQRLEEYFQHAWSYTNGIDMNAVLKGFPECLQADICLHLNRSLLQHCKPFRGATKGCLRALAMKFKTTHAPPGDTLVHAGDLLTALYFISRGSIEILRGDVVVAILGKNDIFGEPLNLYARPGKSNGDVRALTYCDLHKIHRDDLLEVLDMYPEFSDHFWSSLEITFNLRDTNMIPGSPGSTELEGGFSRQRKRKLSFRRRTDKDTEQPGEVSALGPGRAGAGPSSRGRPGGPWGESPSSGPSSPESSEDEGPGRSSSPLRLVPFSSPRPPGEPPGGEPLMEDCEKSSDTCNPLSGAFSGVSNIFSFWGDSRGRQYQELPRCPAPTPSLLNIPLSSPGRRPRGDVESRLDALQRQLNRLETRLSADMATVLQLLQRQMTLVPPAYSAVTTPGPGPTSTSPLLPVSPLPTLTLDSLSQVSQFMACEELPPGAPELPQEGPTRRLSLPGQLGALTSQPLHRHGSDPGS
Series [6] is described as follows: Displacement of [3H]epibatidine from alpha6/4beta4 nicotinic receptor expressed in human HEK293 cells. In kind it is cell-based. Background: Displacement assays read how much labelled ligand stays bound in the presence of the test substance.
In series [7] the target is Neuronal acetylcholine receptor; alpha4/beta2 (Homo sapiens, UniProt P17787+P43681). Description: Displacement of [3H]epibatidine from alpha4beta2 nicotinic receptor expressed in human HEK293 cells. In kind it is cell-based. Particulars: read-out: Ki.
Sequence of Neuronal acetylcholine receptor; alpha4/beta2 (P17787 whole entry): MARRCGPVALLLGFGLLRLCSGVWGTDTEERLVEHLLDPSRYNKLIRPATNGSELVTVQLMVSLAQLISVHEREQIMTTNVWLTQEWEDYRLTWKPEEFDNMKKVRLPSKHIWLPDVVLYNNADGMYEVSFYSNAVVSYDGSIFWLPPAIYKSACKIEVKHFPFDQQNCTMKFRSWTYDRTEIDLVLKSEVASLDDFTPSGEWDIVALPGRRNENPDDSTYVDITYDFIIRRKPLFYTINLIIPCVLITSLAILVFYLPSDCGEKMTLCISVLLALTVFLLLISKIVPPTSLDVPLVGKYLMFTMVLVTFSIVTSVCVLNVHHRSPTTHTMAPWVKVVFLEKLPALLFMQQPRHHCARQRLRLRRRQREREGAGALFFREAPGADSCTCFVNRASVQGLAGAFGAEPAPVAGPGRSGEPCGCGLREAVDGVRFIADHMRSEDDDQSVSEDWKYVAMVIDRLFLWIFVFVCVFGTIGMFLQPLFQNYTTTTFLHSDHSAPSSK
Sequence of Neuronal acetylcholine receptor; alpha4/beta2 (P43681 whole entry): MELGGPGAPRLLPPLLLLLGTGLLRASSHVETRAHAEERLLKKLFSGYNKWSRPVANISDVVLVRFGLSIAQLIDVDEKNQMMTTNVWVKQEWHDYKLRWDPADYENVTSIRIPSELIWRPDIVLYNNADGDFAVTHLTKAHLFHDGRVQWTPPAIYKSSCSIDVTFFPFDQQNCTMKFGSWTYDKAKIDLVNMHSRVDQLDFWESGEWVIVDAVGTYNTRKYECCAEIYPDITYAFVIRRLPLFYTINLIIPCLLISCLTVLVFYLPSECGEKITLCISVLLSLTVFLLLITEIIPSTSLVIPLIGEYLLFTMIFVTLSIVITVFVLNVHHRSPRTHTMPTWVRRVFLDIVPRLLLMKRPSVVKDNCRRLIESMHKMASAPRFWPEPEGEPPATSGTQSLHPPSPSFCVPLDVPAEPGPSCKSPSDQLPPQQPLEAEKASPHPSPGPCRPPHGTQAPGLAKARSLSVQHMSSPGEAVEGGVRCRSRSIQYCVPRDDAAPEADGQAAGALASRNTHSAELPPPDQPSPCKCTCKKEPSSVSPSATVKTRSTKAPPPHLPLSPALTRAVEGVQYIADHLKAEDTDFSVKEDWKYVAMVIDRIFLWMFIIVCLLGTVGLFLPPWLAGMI
Series [8] relates to MDCK. Description: (§1) Efflux ratio of permeability from basolateral to apical side over apical to basolateral side of MDCK cells expressing human MDR gene. In kind it is ADME, cell-based, Canis lupus familiaris. Particulars: dog, MDCK.
Series [9] deals with T1, Neuronal acetylcholine receptor; alpha3/beta4. The series can be described thus: Displacement of [3H]epibatidine from alpha3beta4 nicotinic receptor expressed in human HEK293 cells. In kind it is cell-based.
In series [10] the test system is MDCK. The series can be described thus: (§2) Apparent permeability from apical to basolateral side of MDCK cells. Particulars: dog. In kind it is ADME, cell-based, Canis lupus familiaris.
Series [11] can be described thus: Agonist activity at human alpha6/4beta4 nicotinic receptor expressed in human HEK cells assessed as intracellular calcium […] by FLIPR. In kind it is functional, cell-based, HEK293. Particulars: read-out: EC50. In general terms: Calcium assays in cells follow changes in intracellular calcium, usually with a dye or a luminescent sensor.
The test system of series [12] is Mus musculus. Description: Antipsychotic effect in sc dosed CD1 mouse assessed as prepulse inhibition. In kind it is functional. Particulars: read-out: MED.
The subject of series [13] is Mus musculus. Description: Antipsychotic effect in sc dosed CD1 mouse assessed as inhibition of mescaline-induced scratching behavioral response. In kind it is functional.
Series [14] relates to human MDR (P-glycoprotein). Described as §1. In kind it is ADME, cell-based, Canis lupus familiaris. Particulars: dog, MDCK-MDR1.
A short description of series [15]: as §2. In kind it is ADME, cell-based, Canis lupus familiaris. Particulars: dog.
Series [16] deals with T1, Neuronal acetylcholine receptor; alpha3/beta4. Description: Agonist activity at alpha3beta4 nicotinic receptor expressed in human HEK cells assessed as intracellular calcium […] by FLIPR relative to control. Particulars: HEK293. In kind it is functional, cell-based.

Molecules are shown by their SMILES.

T1 sequence (P30926 whole entry): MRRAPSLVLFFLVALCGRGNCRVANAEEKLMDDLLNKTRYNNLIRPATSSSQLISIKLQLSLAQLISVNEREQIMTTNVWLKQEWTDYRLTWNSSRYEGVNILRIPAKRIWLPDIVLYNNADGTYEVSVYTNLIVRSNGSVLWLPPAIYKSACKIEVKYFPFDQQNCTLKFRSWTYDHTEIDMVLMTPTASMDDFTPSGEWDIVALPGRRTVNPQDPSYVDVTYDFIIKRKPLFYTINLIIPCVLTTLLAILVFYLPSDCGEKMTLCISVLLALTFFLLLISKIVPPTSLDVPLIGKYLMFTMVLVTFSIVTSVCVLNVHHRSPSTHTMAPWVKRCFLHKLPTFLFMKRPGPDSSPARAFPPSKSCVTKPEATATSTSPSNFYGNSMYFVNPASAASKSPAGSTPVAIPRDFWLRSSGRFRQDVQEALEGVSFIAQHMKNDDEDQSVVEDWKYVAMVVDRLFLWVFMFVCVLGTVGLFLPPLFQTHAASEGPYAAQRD
T1 sequence (P32297 whole entry): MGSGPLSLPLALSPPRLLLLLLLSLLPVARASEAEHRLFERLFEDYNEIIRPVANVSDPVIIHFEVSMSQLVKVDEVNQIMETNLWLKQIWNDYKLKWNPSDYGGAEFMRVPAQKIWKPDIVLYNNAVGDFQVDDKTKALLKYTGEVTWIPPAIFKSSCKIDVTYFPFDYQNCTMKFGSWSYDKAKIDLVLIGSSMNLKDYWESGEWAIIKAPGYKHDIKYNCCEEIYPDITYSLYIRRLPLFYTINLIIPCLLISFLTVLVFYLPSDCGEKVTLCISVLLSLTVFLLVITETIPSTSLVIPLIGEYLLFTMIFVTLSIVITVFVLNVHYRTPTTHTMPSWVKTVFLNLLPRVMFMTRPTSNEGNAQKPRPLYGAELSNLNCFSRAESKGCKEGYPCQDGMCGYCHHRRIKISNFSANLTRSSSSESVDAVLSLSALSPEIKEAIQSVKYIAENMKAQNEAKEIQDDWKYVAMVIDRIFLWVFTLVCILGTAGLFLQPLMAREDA
Sequence of Neuronal acetylcholine receptor subunit alpha-7 (P36544 whole entry): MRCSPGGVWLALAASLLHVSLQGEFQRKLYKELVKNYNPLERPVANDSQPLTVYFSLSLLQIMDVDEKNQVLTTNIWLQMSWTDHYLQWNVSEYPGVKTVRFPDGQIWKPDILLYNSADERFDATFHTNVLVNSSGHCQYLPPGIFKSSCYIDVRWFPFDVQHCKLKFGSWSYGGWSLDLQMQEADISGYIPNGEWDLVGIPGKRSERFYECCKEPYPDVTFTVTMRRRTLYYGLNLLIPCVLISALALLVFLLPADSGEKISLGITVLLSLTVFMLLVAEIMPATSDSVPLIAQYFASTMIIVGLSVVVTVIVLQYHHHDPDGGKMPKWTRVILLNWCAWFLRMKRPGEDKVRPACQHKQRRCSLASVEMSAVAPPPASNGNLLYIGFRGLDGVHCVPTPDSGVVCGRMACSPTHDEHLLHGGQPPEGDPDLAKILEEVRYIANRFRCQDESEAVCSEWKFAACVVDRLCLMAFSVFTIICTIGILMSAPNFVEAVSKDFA

Usually EC50 stands for the concentration that produces a half-maximal response. What is called Ki is a dissociation constant, usually derived from enzyme kinetics or from competition with a known ligand. Broadly, the Papp is the rate of passage across a membrane or cell layer, normalised by area and donor concentration. In the case of `Cl.c1cncc(-c2ccccc2O[C@H]2C[C@@H]3CNC[C@H]2C3)c1`, the Efficacy in series [1] stood at 35%. Moreover, in [2], the half-maximal effective concentration (EC50) was below 100 nM. In addition, the Ki in [3] was 1020 nM; in [4] it was 3300 nM; in [5] it was “Not Active”; in [6] it was 2.15 nM; in series [7], above 832 nM; in series [9] it was 1.21 nM. Further, the Ratio with MDCK [8] was determined as 1.65. Moreover, the Papp in the series on MDCK [10] turned out to be 28.7 ×10⁻⁶ cm/s.
Take `Cl.Oc1cncc(-c2ccccc2O[C@H]2C[C@@H]3CNC[C@H]2C3)c1`: in [1], the Efficacy is listed as 230%. Also, the EC50 in series [2] turned out to be 2.99 nM; in series [11] (hek293), 279 nM. Besides, the Ki was 1680 nM in series [3]; above 13500 nM in series [4]; “Not Active” in [5]; 0.177 nM in [6]; 252 nM in series [7]; 0.748 nM in series [9]. Besides, the Ratio with MDCK [8] worked out at 5.02. The apparent permeability (Papp) with MDCK [10] is given as 3.36 ×10⁻⁶ cm/s.
As a reminder, the efflux ratio is a quotient of directional permeabilities that is used to spot active efflux. In general, Papp A→B refers to how fast a substance crosses the layer from the apical side. On to `CS(=O)(=O)Nc1cncc(-c2ccccc2O[C@H]2C[C@@H]3CNC[C@H]2C3)c1.Cl`, for which the Efficacy in series [1] is recorded as 148%. The results for the EC50 in [2] and in series [11] (hek293) were 3.06 nM and 3.27 nM, respectively. In addition, the minimal effective dose was 3.2 mg/kg with Mus musculus [12] and 0.1 mg/kg in the series on Mus musculus [13] (read-out: MED). Moreover, the Ki is 11700 nM in series [3]; 4780 nM in [4]; “Not Active” in series [5]; 0.168 nM in series [6]; 336 nM in [7]; 0.158 nM in series [9]. For the same molecule, the ED50 in the series with Mus musculus [13] (read-out: ID50 (the source's name)) stood at 0.66 mg/kg. Further, the efflux ratio in series [14] amounted to 4.38. In series [15], the apparent permeability from apical to basolateral (Papp A→B) is 1.17 ×10⁻⁶ cm/s.
Regarding `CC(C)S(=O)(=O)Nc1cncc(-c2ccccc2O[C@H]2C[C@@H]3CNC[C@H]2C3)c1.Cl` (racemic), the figures for the Efficacy in series [1] and in [16] were 160% and 57%, respectively. The 50% effective concentration (EC50) in series [2] stood at 0.16 nM; in [11] (Homo sapiens, HEK293), 98.5 nM. In addition, the inhibition constant (Ki) in [3] was 4240 nM; in [4], 14600 nM; in series [5], “Not Active”; in [6], 0.202 nM; in [7], 745 nM; in [9] it was 0.126 nM. Also, in series [14], the efflux ratio is 1.49. In addition, the apical-to-basolateral permeability (Papp A→B) in series [15] worked out at 0.56 ×10⁻⁶ cm/s.
